IC50 data for 15 compounds are collected here from patent US20260258035A1, “FIVE-MEMBERED AND SIX-MEMBERED NITROGEN-CONTAINING COMPOUND, AND INTERMEDIATE, PREPARATION METHOD AND USE THEREOF” (HANGZHOU SYNRX THERAPEUTICS BIOMEDICAL TECHNOLOGY CO., LTD., priority 2022, published 2026).

Experiment [1] addresses PARG (Homo sapiens, UniProt Q86W56). In words: Biochemical assay (PARG, TFMU-ADPr substrate).
Experiment [2] concerns HCC1806. The experiment in a line: Cell viability assay (CellTiter-Glo). In kind it is cell-based, Human. Conditions: HCC1806, 7 days, CellTiter-Glo, read-out: IC50 (nM) in cell viability assay. On the technique in general: In ATP-based viability assays light output follows the ATP content of the culture.
[3] abbreviates: 4 nM PARG, 66.2 uM TFMU-ADPr, 3 min at room temperature.

Where two headings read alike, the source gives them in different places. Where only a bound is given, the exact number is not on record here.

PARG, sequence (Q86W56 whole entry): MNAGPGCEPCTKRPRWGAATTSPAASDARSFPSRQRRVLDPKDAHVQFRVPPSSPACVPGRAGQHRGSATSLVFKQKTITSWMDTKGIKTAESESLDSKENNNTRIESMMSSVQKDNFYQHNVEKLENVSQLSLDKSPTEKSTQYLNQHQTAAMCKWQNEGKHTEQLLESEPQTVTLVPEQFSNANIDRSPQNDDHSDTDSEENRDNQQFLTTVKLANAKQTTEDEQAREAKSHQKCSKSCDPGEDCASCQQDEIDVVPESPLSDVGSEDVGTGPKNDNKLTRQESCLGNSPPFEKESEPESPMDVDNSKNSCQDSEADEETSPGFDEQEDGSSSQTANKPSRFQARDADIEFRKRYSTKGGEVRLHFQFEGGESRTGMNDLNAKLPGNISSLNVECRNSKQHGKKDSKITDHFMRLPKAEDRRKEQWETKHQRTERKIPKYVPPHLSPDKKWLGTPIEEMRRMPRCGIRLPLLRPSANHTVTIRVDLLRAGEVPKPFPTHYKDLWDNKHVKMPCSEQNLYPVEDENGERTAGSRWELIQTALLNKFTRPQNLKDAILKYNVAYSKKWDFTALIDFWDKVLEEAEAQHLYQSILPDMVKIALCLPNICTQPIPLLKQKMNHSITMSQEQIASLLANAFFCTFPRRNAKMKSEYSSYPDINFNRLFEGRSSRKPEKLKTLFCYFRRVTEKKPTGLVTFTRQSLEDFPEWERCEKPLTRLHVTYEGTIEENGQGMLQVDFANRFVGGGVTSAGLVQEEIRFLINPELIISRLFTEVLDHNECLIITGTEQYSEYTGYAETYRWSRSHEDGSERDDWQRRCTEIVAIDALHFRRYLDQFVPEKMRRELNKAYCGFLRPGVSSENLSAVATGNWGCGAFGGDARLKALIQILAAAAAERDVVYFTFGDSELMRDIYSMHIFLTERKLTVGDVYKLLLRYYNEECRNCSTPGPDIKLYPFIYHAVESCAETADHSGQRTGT

On to `CC1(NS(=O)(=O)c2cc(N3CCC(O)(C(F)(F)F)CC3)c3cnc(-c4nnc(C(F)F)s4)n3c2)COC1` [Example 72, 3-(5-(difluoromethyl)-1,3,4-thiadiazol-2-yl)-8-(4-hydroxy-4-(trifluoromethyl)piperidin-1-yl)-N-(3-methyloxetan-3-yl)imidazo[1,5-a]pyridine-6-sulfonamide], for which the IC50 in experiment [1] (setting [3]) was less than 100 nM; in experiment [1] (PARG, TFMU-ADPr substrate), 17.8 nM; in experiment [2] it was 805 nM; in experiment [2] (Homo sapiens, HCC1806, 168 h), 500 to 5000 nM.
`CC(C)C(=O)N1CCN(c2cc(S(=O)(=O)N[C@H]3C[C@H]3F)cn3c(-c4nnc(C(F)F)s4)ncc23)CC1` [Example 82, 3-(5-(difluoromethyl)-1,3,4-thiadiazol-2-yl)-N-((1S,2R)-2-fluorocyclopropyl)-8-(4-isobutyrylpiperazin-1-yl)imidazo[1,5-a]pyridine-6-sulfonamide]: the IC50 in experiment [1] (setting [3]) is 100 to 500 nM; in experiment [1] (PARG, TFMU-ADPr substrate) it was 209 nM; in experiment [2] it was 7050 nM; in experiment [2] (Homo sapiens, HCC1806, 168 h), 5000 to 30000 nM.
As to `CC1(C(=O)N2CCN(c3cc(S(=O)(=O)NC4(C#N)CC4)cn4c(-c5nnc(C(F)F)s5)ncc34)CC23CC3)CC1` [Example 91, N-(1-cyanocyclopropyl)-3-(5-(difluoromethyl)-1,3,4-thiadiazol-2-yl)-8-(4-(1-methylcyclopropane-1-carbonyl)-4,7-diazaspiro[2.5]octan-7-yl)imidazo[1,5-a]pyridine-6-sulfonamide], the IC50 is less than 100 nM in experiment [1] (setting [3]); 31.6 nM in experiment [1] (PARG, TFMU-ADPr substrate); 264 nM in experiment [2]; less than 500 nM in experiment [2] (Homo sapiens, HCC1806, 168 h).
In the same order, the values of `CC1(C(=O)N2CC3CCC2CN3c2cc(S(=O)(=O)NC3(C#N)CC3)cn3c(-c4nnc(C(F)F)s4)ncc23)CC1` (centres unmarked) [Example 92, N-(1-cyanocyclopropyl)-3-(5-(difluoromethyl)-1,3,4-thiadiazol-2-yl)-8-(5-(1-methylcyclopropane-1-carbonyl)-2,5-diazabicyclo[2.2.2]octan-2-yl)imidazo[1,5-a]pyridine-6-sulfonamide] are less than 100 nM, 27.5 nM, 974 nM and 500 to 5000 nM.
On to `CC(C)C(=O)N1CCN(c2cc(S(=O)(=O)NC3(C#N)CC3)cn3c(-c4nnc(C(F)F)s4)nnc23)CC1` [Example 105, N-(1-cyanocyclopropyl)-3-(5-(difluoromethyl)-1,3,4-thiadiazol-2-yl)-8-(4-isobutyrylpiperazin-1-yl)-[1,2,4]triazolo[4,3-a]pyridine-6-sulfonamide], for which the IC50 in experiment [1] (setting [3]) was less than 100 nM; in experiment [1] (PARG, TFMU-ADPr substrate) it was 78.6 nM; in experiment [2], 10000 nM; in experiment [2] (Homo sapiens, HCC1806, 168 h), 5000 to 30000 nM.
`CC(C)C(=O)N1CCN(c2cc(S(=O)(=O)NC3(CF)COC3)cn3c(-c4nnc(C(F)F)s4)nnc23)CC1` [Example 106, 3-(5-(difluoromethyl)-1,3,4-thiadiazol-2-yl)-N-(3-(fluoromethyl)oxetan-3-yl)-8-(4-isobutyrylpiperazin-1-yl)-[1,2,4]triazolo[4,3-a]pyridine-6-sulfonamide]: the IC50 in experiment [1] (setting [3]) was less than 100 nM; in experiment [1] (PARG, TFMU-ADPr substrate), 28.2 nM; in experiment [2], 5000 nM; in experiment [2] (Homo sapiens, HCC1806, 168 h) it was 5000 to 30000 nM.
Regarding `CC(C)(O)C1CCN(c2cc(S(=O)(=O)NC3(CF)CC3)cn3c(-c4nnc(C(F)F)s4)nnc23)CC1` [Example 109, 3-(5-(difluoromethyl)-1,3,4-thiadiazol-2-yl)-N-(1-(fluoromethyl)cyclopropyl)-8-(4-(2-hydroxypropan-2-yl)piperidin-1-yl)-[1,2,4]triazolo[4,3-a]pyridine-6-sulfonamide], the IC50 was less than 100 nM in experiment [1] (setting [3]); 30.5 nM in experiment [1] (PARG, TFMU-ADPr substrate); 7000 nM in experiment [2]; 5000 to 30000 nM in experiment [2] (Homo sapiens, HCC1806, 168 h).
Turning to `CC(C)C(=O)N1CCN(c2cc(S(=O)(=O)NC3(C)CC3)cn3c(-c4nnc(C(F)(F)F)s4)nnc23)C[C@H]1C` [Example 119, (R)-8-(4-isobutyryl-3-methylpiperazin-1-yl)-N-(1-methylcyclopropyl)-3-(5-(trifluoromethyl)-1,3,4-thiadiazol-2-yl)-[1,2,4]triazolo[4,3-a]pyridine-6-sulfonamide], the IC50 in experiment [1] (setting [3]) was less than 100 nM; in experiment [1] (PARG, TFMU-ADPr substrate), 41.7 nM; in experiment [2], 431 nM; in experiment [2] (Homo sapiens, HCC1806, 168 h) it was less than 500 nM.
On to `CC(C)C(=O)N1CCN(c2cc(S(=O)(=O)NC3CC3)cn3c(-c4nnc(C(F)(F)F)s4)nc(Cl)c23)CC1` [Example 121, 1-chloro-N-cyclopropyl-8-(4-isobutyrylpiperazin-1-yl)-3-(5-(trifluoromethyl)-1,3,4-thiadiazol-2-yl)imidazo[1,5-a]pyridine-6-sulfonamide], for which the IC50 is less than 100 nM in experiment [1] (setting [3]); 60.1 nM in experiment [1] (PARG, TFMU-ADPr substrate); 2590 nM in experiment [2] (Homo sapiens, HCC1806, 168 h).
Take `C[C@H]1CN(c2cc(S(=O)(=O)NC3(C)COC3)cn3c(-c4nnc(C(F)(F)F)s4)nc(Cl)c23)C[C@H](C)N1` [Example 125, 1-chloro-8-((3S,5S)-3,5-dimethylpiperazin-1-yl)-N-(3-methyloxetan-3-yl)-3-(5-(trifluoromethyl)-1,3,4-thiadiazol-2-yl)imidazo[1,5-a]pyridine-6-sulfonamide]: the IC50 in experiment [1] (PARG, TFMU-ADPr substrate) stood at 31.2 nM; in experiment [2] (Homo sapiens, HCC1806, 168 h), 518 nM.
Taken in the same sequence, the figures for `C[C@H]1CN(c2cc(S(=O)(=O)NC3(C)COC3)cn3c(-c4nnc(C(F)F)s4)nc(Cl)c23)C[C@H](C)N1` [Example 126, 1-chloro-3-(5-(difluoromethyl)-1,3,4-thiadiazol-2-yl)-8-((3S,5S)-3,5-dimethylpiperazin-1-yl)-N-(3-methyloxetan-3-yl)imidazo[1,5-a]pyridine-6-sulfonamide] were 5.34 nM and 602 nM.
In the same order, the values of `COCC1CN(c2cc(S(=O)(=O)NC3(C)COC3)cn3c(-c4nnc(C(F)F)s4)nc(Cl)c23)CCN1` (centres unmarked) [Example 127, 1-chloro-3-(5-(difluoromethyl)-1,3,4-thiadiazol-2-yl)-8-(3-(methoxymethyl)piperazin-1-yl)-N-(3-methyloxetan-3-yl)imidazo[1,5-a]pyridine-6-sulfonamide] are 1.01 nM and 95 nM.
In the same order, the values of `CN(C)C(=O)N1CCN(c2cc(S(=O)(=O)NC3(C)COC3)cn3c(-c4nnc(C(F)F)s4)nc(Cl)c23)CC1` [Example 128, 4-(1-chloro-3-(5-(difluoromethyl)-1,3,4-thiadiazol-2-yl)-6-(N-(3-methyloxetan-3-yl)sulfamoyl)imidazo[1,5-a]pyridin-8-yl)-N,N-dimethylpiperazine-1-carboxamide] are 0.99 nM and 28 nM.
In the case of `[2H]C([2H])([2H])OC1(C(=O)N2CCN(c3cc(S(=O)(=O)NC4(C)COC4)cn4c(-c5nnc(C(F)(F)F)s5)nc(Cl)c34)CC2)CC1` [Example 129, 1-chloro-8-(4-(1-(methoxy-d3)cyclopropane-1-carbonyl)piperazin-1-yl)-N-(3-methyloxetan-3-yl)-3-(5-(trifluoromethyl)-1,3,4-thiadiazol-2-yl)imidazo[1,5-a]pyridine-6-sulfonamide], the half-inhibitory concentration (IC50) was found to be 0.16 nM in experiment [1] (PARG, TFMU-ADPr substrate) and 12.7 nM in experiment [2] (Homo sapiens, HCC1806, 168 h).
For `CC(C)C(=O)N1CCN(c2cc(S(=O)(=O)NC3(C#N)CC3)cn3c(-c4nnc(C(F)(F)F)s4)nc(Cl)c23)C[C@H]1C` [Example 130, (R)-1-chloro-N-(1-cyanocyclopropyl)-8-(4-isobutyryl-3-methylpiperazin-1-yl)-3-(5-(trifluoromethyl)-1,3,4-thiadiazol-2-yl)imidazo[1,5-a]pyridine-6-sulfonamide], the IC50 is 36.3 nM in experiment [1] (PARG, TFMU-ADPr substrate) and 1200 nM in experiment [2] (Homo sapiens, HCC1806, 168 h).

Usually IC50 stands for the concentration at which inhibition is half-maximal.
